In US20260159474A1, “Aminoindane Compounds and Compositions and Methods of Their Therapeutic Use” (Solvonis Therapeutics Ireland Holdings Limited, priority 2021, published 2026):

Assay: Plasma protein binding by equilibrium dialysis, human plasma
Format: in vitro ADME
Conditions: for Human Plasma (Fu %): fraction unbound, 0.5 μM; for fraction unbound at 5 h, 0.5 μM: human, plasma, pH 7.4, read-out: Human Plasma (Fu %)
Experimental: Methods: Plasma protein binding and blood tissue binding of test items (0.5 μM) was determined using biological samples from male Sprague Dawley (SD) rats and humans. […] Dexamethasone was used as a control compound for lung tissue binding. Various biological samples were spiked with test compounds according to the methods that follow.
Preparation of plasma or blood samples: An appropriate amount of test compound was dissolved in DMSO to yield a 10 mM solution. Further dilutions, to obtain 50 μM working solutions (WS), were then prepared using 50% acetonitrile in Milli-Q water. These 100×WS were used to spike plasma or blood to obtain a final concentration of 0.5 μM. From this initial spiking solution, control samples (n=3), referred to as T=0, were immediately extracted and used to calculate the recovery of the test item.
An equilibrium dialysis method was performed to determine protein binding in the various biological samples described herein. Materials were prepared and methods were in accordance with the following procedures.
Membranes were prepared for use in the equilibrium dialysis experiment. by soaking in deionized water for at least 60 minutes. After this period, 20% of pure ethanol was added, and the membranes were left in this solution for at least 20 minutes. The membranes were then rinsed in Milli-Q water prior to use.
To initiate the experiment, 150 μL of test item-free buffer (isotonic phosphate buffer for plasma and blood, artificial CSF buffer for brain or HBSS buffer for lung) was dispensed on one half-well of a 96-well dialyzer apparatus (HTDialysis LLC), and 150 μL of spiked matrix (plasma, blood, brain or lung) was loaded on the other half-well. Alternative volumes may be used according to the operating instructions of HTDialysis.
Dialysis buffer was prepared by dissolving Na2HPO4 8.69 g, KH2PO4 1.90 g, and NaCl 4.11 g in […] of MilliQ water, and adjusting the pH to 7.4 with H3PO4. At the end of the equilibration period (device is sealed and incubated under shaking for 5 hours at 37° C.), 50 μL of dialysed matrix will be added to 50 μL of corresponding test item free dialysed buffer, and vice versa for buffer, such that the volume of buffer to matrix will be the same. Samples were extracted by protein precipitation with 300 μL of acetonitrile containing rolipram (for positive ionization mode) or diclofenac (for negative ionization mode) as internal standard and centrifuged for 10 minutes at 2800 rpm. Supernatants were collected (100 μL), diluted with 18% ACN in Milli Q water (200 μL).
Samples were then injected onto an HPLC MS/MS or UPLC MS/MS system. In order to control the integrity of the membrane after the dialysis process, the presence of protein was assessed in the buffer compartment. 5 μL of dialysed buffer will be added with 250 μL of Bio-Rad protein assay reagent (Bio-Rad) diluted 1:5 with Milli-Q water. A change in color from brown to a brilliant blue indicates protein contamination. Contaminated samples were excluded from all calculations.
Samples were analyzed in a LC-MS/MS system using an analytical method to monitor the compound to internal standard peak area ratios as representative of the compound concentrations. Alternatively, samples were analyzed by RapidFire.
Protein binding in plasma, blood, brain, and lung tissue samples were determined with the following formula: Afu=Buffer/x, wherein “x” may be plasma, blood, brain, or lung, and “Afu” is the apparent fraction unbound, and the other variables refer to the analyte/internal standard ratio determined in their specific compartment (buffer, plasma, blood, brain homogenate, and lung homogenate); Fucr-(1/D)/[(1/Afu)-1+(1/D)], wherein fucr is the fraction unbound corrected, D is the matrix dilution factor (D=1 for plasma, 2 for blood, 3 for brain, 7 for lung). % Binding=(1−fucr)×100 and % Unbound=100—% Bound. See, e.g., Kalvass et al., Drug Metab Dispos., 2018; 46(4):458-469. […]

SMILES	Human Plasma (Fu %)	fraction unbound at 5 h, 0.5 μM
CNC(C)Cc1ccc2c(c1)OCO2 (centres unmarked) [MDMA]	>50%	–
COC(=O)c1ccc2c(c1)CC(N)C2 (centres unmarked) [CMP-405, 2-aminoindane-5-methylcarboxylate]	high binding in plasma specimens and Low	–
COc1ccc2c(c1)CC(N)C2 (centres unmarked) [MEAI, 5-methoxy-2-aminoindane]	–	> 0.5
COC(=O)c1cc2c(cc1OC)CC(N)C2 (centres unmarked) [CMP-401]	>50%	> 0.5
COC(=O)COc1ccc2c(c1)CC(N)C2 (centres unmarked) [CMP-402]	>50%	> 0.5
COc1cc2c(cc1C)CC(N)C2 (centres unmarked) [MMAI, 5-methoxy-6-methyl-2-aminoindane]	–	> 0.5
